“Also recorded” adds a separate entry of the source.

What is called IC50 is the point on the concentration scale where inhibition reaches its midpoint.

The target of one data set is T1, recombinant human PARP (Homo sapiens, UniProt P09874).
T1 construct: purchased Trevigen (Gaithersburg, Md.)
The data set can be described thus: PARP enzyme assay with purified recombinant human PARP, [3H]NAD. Format: biochemical. To be noted: TABLE VII; 25° C., 15 minutes; read-out: Approximate IC50's.

Data set [1] deals with ischemia and reperfusion of the heart in rabbits. The following applies: cited from earlier work.
The test system of data set [2] is focal cerebral ischemia in male Long-Evans rats. Nature of the data set: Infarct in focal cerebral ischemia: distal MCA cauterization with bilateral temporary CCA occlusion. Format: in vivo, rat (Long-Evans). To be noted: for cross-sectional infarct area distribution, result in words: FIG. 1; for damaged (infarct) volume: mean±SD. As for the experimental part:
(§1) Focal cerebral ischemia was produced by cauterization of the right distal MCA (middle cerebral artery) with bilateral temporary common carotid artery occlusion in male Long-Evans rats for 90 minutes. All procedures performed on the animals were approved by the University Institutional Animal Care and Use Committee of the University of Pennsylvania. A total of 42 rats (weights: 230-340 g) obtained from Charles River were used in this study. The animals fasted overnight with free access to water prior to the surgical procedure.
(§2) Two hours prior to MCA occlusion, varying amounts (control, n=14; 5 mg/kg, n=7; 10 mg/kg, n=7; 20 mg/kg, n=7; and 40 mg/kg, n=7) of the PARP inhibitor compound, 3,4-dihydro-5-[4-(1-piperidinyl)-butoxy]-1(2H)-isoquinolinone ("DPQ"), were dissolved in dimethyl sulfoxide (DMSO) using a sonicator. A volume of 1.28 ml/kg of the resulting solution was injected intraperitoneally into fourteen rats.
(§3) The rats were then anesthetized with halothane (4% for induction and 0.8%-1.2% for the surgical procedure) in a mixture of 70% nitrous oxide and 30% oxygen. The body temperature was monitored by a rectal probe and maintained at 37.5±0.5° C. with a heating blanket regulated by a homeothermic blanket control unit (Harvard Apparatus Limited, Kent, U.K.). A catheter (PE-50) was placed into the tail artery, and arterial pressure was continuously monitored and recorded on a Grass polygraph recorder (Model 7D, Grass Instruments, Quincy, Mass.). Samples for blood gas analysis (arterial pH, PaO2 and PaCO2) were also taken from the tail artery catheter and measured with a blood gas analyzer (ABL 30, Radiometer, Copenhagen, Denmark). Arterial blood samples were obtained 30 minutes after MCA occlusion.
(§4) The head of the animal was positioned in a stereotaxic frame, and a right parietal incision between the right lateral canthus and the external auditory meatus was made. Using a dental drill constantly cooled with saline, a 3 mm burr hole was prepared over the cortex supplied by the right MCA, 4 mm lateral to the sagittal suture and 5 mm caudal to the coronal suture. The dura mater and a thin inner bone layer were kept, care being taken to position the probe over a tissue area devoid of large blood vessels. The flow probe (tip diameter of 1 mm, fiber separation of 0.25 mm) was lowered to the bottom of the cranial burr hole using a micromanipulator. The probe was held stationary by a probe holder secured to the skull with dental cement. The microvascular blood flow in the right parietal cortex was continuously monitored with a laser Doppler flowmeter (FloLab, Moor, Devon, U.K., and Periflux 4001, Perimed, Stockholm, Sweden).
Focal cerebral ischemia was produced by cauterization of the distal portion of the right MCA with bilateral temporary common carotid artery (CCA) occlusion by the procedure of Chen et al., "A Model of Focal Ischemic Stroke in the Rat: Reproducible Extensive Cortical Infarction", Stroke, 17:738-43 (1986) and/or Liu et al., "Polyethylene Glycol-conjugated Superoxide Dismutase and Catalase Reduce Ischemic Brain Injury", Am. J. Physiol., 256:H589-93 (1989), both of which are hereby incorporated by reference.
Specifically, bilateral CCA's were isolated, and loops made from polyethylene (PE-10) catheter were carefully passed around the CCA's for later remote occlusion. The incision made previously for placement of the laser doppler probe was extended to allow observation of the rostral end of the zygomatic arch at the fusion point using a dental drill, and the dura mater overlying the MCA was cut. […] The burr hole was covered with a small piece of Gelform, and the wound was sutured to maintain the brain temperature within the normal or near-normal range.
After 90 minutes of occlusion, the carotid loops were released, the tail arterial catheter was removed, and all of the wounds were sutured. Gentamicin sulfate (10 mg/ml) was topically applied to the wounds to prevent infection. […]

A further data set relates to colitis in rats. To be noted: colitis induced by intraluminal trinitrobenzene sulfonic acid in 50% ethanol; cited from earlier work.
Data set [3] has as its system cell viability, glucose metabolism, and DNA synthesis. The following applies: cited from earlier work.
A further data set has as its system tumor cells. To be noted: synergy: co-treatment with an alkylating drug; cited from earlier work.
A short description of data set [4]: Arterial blood gases and mean arterial blood pressure in the focal cerebral ischemia model. To be noted: for MABP, ischemia: average during occlusion; for MABP, steady state: just prior to occlusion. Format: in vivo, rat (Long-Evans). As to the method:
as §1, §2, §3
A "steady state" MABP was taken following completion of the surgical preparation, just prior to occlusion; an "ischemia" MABP was taken as the average MABP during occlusion.

The test system of data set [5] is right parietal cortex blood flow. The data set can be described thus: Microvascular blood flow in right parietal cortex by laser Doppler flowmetry. Format: in vivo, rat (Long-Evans). The following applies: for relative blood flow in the right parietal cortex on occlusion: control 20.8±7.7%. As for the experimental part: as §4
Since the blood flow values obtained from the laser doppler were in arbitrary units, only percent changes from the baseline (prior to occlusion) were reported.

For data set [6], the system named is NO-mediated vascular failure in endotoxic shock. The following applies: in vivo; cited from earlier work.

T1 sequence (P09874 whole entry): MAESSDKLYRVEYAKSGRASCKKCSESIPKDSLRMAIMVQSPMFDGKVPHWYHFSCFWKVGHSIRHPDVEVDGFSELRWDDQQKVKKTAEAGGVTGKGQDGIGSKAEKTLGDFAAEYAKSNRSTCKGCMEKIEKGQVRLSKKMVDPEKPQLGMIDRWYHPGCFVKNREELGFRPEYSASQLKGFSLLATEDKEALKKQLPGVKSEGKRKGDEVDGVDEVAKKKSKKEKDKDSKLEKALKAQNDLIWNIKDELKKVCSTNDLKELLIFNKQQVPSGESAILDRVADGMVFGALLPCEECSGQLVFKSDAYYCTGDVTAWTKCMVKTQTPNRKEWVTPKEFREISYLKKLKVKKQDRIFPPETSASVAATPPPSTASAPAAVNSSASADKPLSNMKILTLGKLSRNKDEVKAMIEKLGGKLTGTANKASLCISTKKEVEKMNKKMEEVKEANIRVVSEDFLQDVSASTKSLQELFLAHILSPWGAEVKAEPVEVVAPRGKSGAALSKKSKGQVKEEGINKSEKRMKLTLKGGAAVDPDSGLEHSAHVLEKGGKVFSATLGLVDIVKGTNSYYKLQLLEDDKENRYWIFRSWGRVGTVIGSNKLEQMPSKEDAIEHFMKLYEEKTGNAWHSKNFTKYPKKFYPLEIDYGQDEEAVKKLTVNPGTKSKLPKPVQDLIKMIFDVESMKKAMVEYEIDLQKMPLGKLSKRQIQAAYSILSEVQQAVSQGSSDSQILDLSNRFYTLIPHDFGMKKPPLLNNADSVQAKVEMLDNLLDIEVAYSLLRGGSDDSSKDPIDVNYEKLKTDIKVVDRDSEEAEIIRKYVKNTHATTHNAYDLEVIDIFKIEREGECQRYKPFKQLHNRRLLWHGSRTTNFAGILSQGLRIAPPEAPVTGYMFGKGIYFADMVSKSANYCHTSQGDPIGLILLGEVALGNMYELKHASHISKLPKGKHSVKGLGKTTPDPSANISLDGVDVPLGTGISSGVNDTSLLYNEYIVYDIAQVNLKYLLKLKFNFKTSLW
Description for recombinant human PARP: The reaction was initiated by incubating the mixture at 25° C. After 15 minutes' incubation, the reaction was terminated by adding 500 microliters of ice cold 20% (w/v) trichloroacetic acid. The precipitate formed was transferred onto a glass fiber filter (Packard Unifilter-GF/B) and washed three times with ethanol. After the filter was dried, the radioactivity is determined by scintillation counting.

In the case of `O=c1[nH]c2cc(F)ccc2c2ccccc12`, the half-maximal inhibitory concentration (IC50) at recombinant human PARP was ~200 nM.

As for `Oc1cccc2c(O)nccc12` [1,5-dihydroxy-isoquinoline], the “reduction in infarct size” value in data set [1] (1 mg/kg) is given as 38-48%.

Consider `O=C1NCCc2c(OCCCCN3CCCCC3)cccc21` [3,4-dihydro-5-[4-(1-piperidinyl)-butoxy]-1(2H)-isoquinolinon] [3,4-dihydro-5-[4-(1-piperidinyl)-butoxy]-1(2H)-isoquinolinone], for which the “cross-sectional infarct area distribution, result in words” value in data set [2] (5 mg/kg and 20 mg/kg) is “fell approximately halfway between the control and the 10 mg/kg curves”; in data set [2] (40 mg/kg) it was “close to the control”. The entries for the “infarct volume, result in words” value in data set [2] (40 mg/kg) and in data set [2] (overall / dose comparison) were “less neuroprotective” and “U-shaped dose-response curve”, respectively.

In the case of `NC(=O)c1cccc(N)c1` [3-aminobenzamide], in data set [1] (10 mg/kg, single injection one minute before occlusion or one minute before reperfusion), the “reduction in infarct size in the heart” value is recorded as 32-42%. Also, the “effect on colitis, result in words” value in the data set with colitis in rats was “reduced the inflammatory response and restored the morphology and the energetic status of the distal colon”. In [3], the “effect on other metabolic processes, result in words” value was “shown to affect cell viability, glucose metabolism, and DNA synthesis”.

Take `O=c1[nH]c2ccccc2c2ccccc12` [6(5H)-Phenanthridinone]: the “effect on tumor cells, result in words” value in the data set on tumor cells was “reduced proliferation of tumor cells, and a marked synergistic effect when tumor cells are co-treated with this compound and an alkylating drug”.

Take `O=C1NCCc2c(OCCCCN3CCCCC3)cccc21` [DPQ, 3,4-dihydro-5-[4-(1-piperidinyl)-butoxy]-1(2H)-isoquinolinone]: the “damaged (infarct) volume” value in [2] (5 mg/kg i.p. 2 h before and 2 h after MCA occlusion, p<0.001 vs control (165.2±34.0 mm^3)) stood at 106.7±23.2 mm^3; in data set [2] (10 mg/kg i.p. 2 h before and 2 h after MCA occlusion, p<0.001 vs control (165.2±34.0 mm^3)), 76.4±16.8 mm^3; in data set [2] (20 mg/kg i.p. 2 h before and 2 h after MCA occlusion, p<0.01 vs control (165.2±34.0 mm^3)) it was 110.2±42.0 mm^3; in data set [2] (40 mg/kg i.p. 2 h before and 2 h after MCA occlusion, not significant vs control (165.2±34.0 mm^3)), 135.6±44.8 mm^3. Further, the “infarct volume, result in words” value was “no significant difference between the control and the 40 mg/kg-treated group” in data set [2] (40 mg/kg); “significant differences between the 5 mg/kg-treated group and the 10 mg/kg-treated group (p<0.02), and between the 10 mg/kg-treated group and the 40 mg/kg-treated group (p<0.01); also recorded: substantial reduction in infarct volume” in data set [2] (overall / dose comparison). Also, the “damaged volume compared to control, result in words” value in [2] (5, 10 and 20 mg/kg) is recorded as “significant decrease in the damaged volume”. Besides, the PaCO2 in [4] (5 mg/kg-treated group) turned out to be 38.0 mm Hg; in data set [4] (10 mg/kg-treated group), 39.3 mm Hg; in [4] (20 mg/kg-treated group), 41.3 mm Hg; in data set [4] (40 mg/kg-treated group), 39.5 mm Hg. For the same molecule, the PaO2 in data set [4] (5 mg/kg-treated group) is listed as 126 ± 20 mm Hg; in data set [4] (10 mg/kg-treated group) it was 125 ± 16 mm Hg; in data set [4] (20 mg/kg-treated group), 122 ± 14 mm Hg; in data set [4] (40 mg/kg-treated group) it was 137 ± 17 mm Hg. Moreover, the “arterial pH” value in data set [4] (5 mg/kg-treated group) was determined as 7.36; in data set [4] (10 mg/kg-treated group), 7.34; in data set [4] (20 mg/kg-treated group) it was 7.35; in data set [4] (40 mg/kg-treated group), 7.33. The “MABP, ischemia” value came out at 91 ± 12 mm Hg in data set [4] (5 mg/kg-treated group, p < 0.01 vs steady state); 90 ± 14 mm Hg in data set [4] (10 mg/kg-treated group, p < 0.05 vs steady state); 91 ± 12 mm Hg in data set [4] (20 mg/kg-treated group, p < 0.01 vs steady state); 88 ± 12 mm Hg in data set [4] (40 mg/kg-treated group, p < 0.05 vs steady state). The “MABP, steady state” value is given as 78 ± 5 mm Hg in [4] (5 mg/kg-treated group), 80 ± 9 mm Hg in data set [4] (10 mg/kg-treated group), 79 ± 10 mm Hg in data set [4] (20 mg/kg-treated group) and 78 ± 4 mm Hg in data set [4] (40 mg/kg-treated group). The “MABP, result in words” value in [4] (all five groups including control) is listed as “MABP was significantly elevated following occlusion in all five groups, there were no significant differences in MABP during the occlusion period among the groups”. For the same molecule, the “arterial blood gases (PaO2, PaCO2 and pH), result in words” value in [4] (control and treated groups) is “within the physiological range in the control and treated groups with no significant differences in these parameters among the five groups”. Moreover, the “relative blood flow in the right parietal cortex on occlusion” value is given as 18.7±7.4 % of the baseline in data set [5] (5 mg/kg-treated group (n=7)), 21.4±7.7 % of the baseline in data set [5] (10 mg/kg-treated group (n=7)) and 19.3±11.2 % of the baseline in data set [5] (40 mg/kg-treated group (n=7)). In data set [5] (control, 5, 10 and 40 mg/kg), the “blood flow response to occlusion, result in words” value is listed as “no significant differences in the blood flow response to occlusion among the four groups”.

Take `NC(=O)c1ccccc1` [benzamide]: the “effect on other metabolic processes, result in words” value in data set [3] is “shown to affect cell viability, glucose metabolism, and DNA synthesis”.

On to `NC(=O)c1cccnc1` [nicotinamide], for which, in data set [6], the “effect on vascular failure in endotoxic shock, result in words” value was “protects against delayed, NO-mediated vascular failure in endotoxic shock”.

Values taken from US6235748A, “Oxo-substituted compounds, process of making, and compositions and methods for inhibiting parp activity” (Guilford Pharmaceuticals Inc., priority 2000, dated 2001).
